Earlier results as cited in patent US10085973B2, “Pharmaceutical composition containing a compound having a thrombopoietin receptor agonistic activity” (Shionogi & Co., Ltd., priority 2012, dated 2018).
Where two headings read alike, the source gives them in different places.

System: chronic liver disease patients with platelet count of less than 5×10^4/μL
Conditions: cited from earlier work

Structure (SMILES): CC1=NN(c2ccc(C)c(C)c2)C(=O)/C1=N\Nc1cccc(-c2cccc(C(=O)O)c2)c1O [Eltrombopag]
- avoidance of platelet transfusion (active drug group, administered for 2 weeks before invasive procedures): 72%
- incidence of portal vein thrombosis (active drug group): 4%
- risk of development of portal vein thrombosis (group having platelet count of 20×10^4/μL or higher during the investigation period): 10.6%
- risk of development of portal vein thrombosis (group with platelet count of less than 20×10^4/μL): 1.2%
- risk of portal vein thrombosis, group 20×10^4/μL or higher vs group less than 20×10^4/μL (human, in vivo): about 9 times
- cases with platelet count 20×10^4/μL or higher at the time of development of portal vein thrombosis (out of 6 cases in the active drug group): 5
